Among the test systems are MCF7; MOLT-4; OVCAR-5; SF-295; KM12; IGROV-1; U-251; UACC-257; NCI/ADR-RES; Malme-3M; COLO 205; ACHN; SW-620; SK-MEL-2; BT-549; OVCAR-4; SF-268; CCRF-CEM; CAKI-1; DU-145.
Common to all, as to test: NCI anticancer screen, dose series, 48 h

Molecules are shown by their SMILES.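 In this assay, cells in 96-well plates receive the compound at five concentrations for 48 hours. Endpoints are linearly interpolated between the surrounding concentrations. GI50 = concentration required for 50% inhibition of growth.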 Active and inactive are the calls of the source. Cut-off read from the data, not from the text of the source: active = GI50 up to about 1.1 µM and inactive = higher.

`COC1=CC(=O)c2c(CCNC(=O)OCc3ccccc3)n[nH]c2C1=O`: the GI50 was 8.07 µM (inactive) in the assay on MCF7; 16.8 µM (inactive) with MOLT-4; 18.1 µM (inactive) in the assay with OVCAR-5; 20.6 µM (inactive) in the assay with SF-295; 10 µM (inactive) with KM12; 15.4 µM (inactive) with IGROV-1. Besides, the GI50 with U-251 was 13.2 µM (inactive); in the assay on UACC-257 it was 14.9 µM (inactive); in the assay on NCI/ADR-RES, 75.9 µM (inactive); with Malme-3M it was 1.76 µM (inactive); with COLO 205 it was 18.8 µM (inactive); in the assay with ACHN it was 14.2 µM (inactive). For the same compound, the GI50 in the assay with SW-620 is 19.5 µM (inactive); in the assay with SK-MEL-2, 11 µM (inactive); with BT-549, 17.5 µM (inactive).

For `COC(C/C(=C/CO[Si](C(C)C)(C(C)C)C(C)C)C(=O)Nc1ccccc1I)OC`, the GI50 is 11.8 µM (inactive) in the assay with MOLT-4; 24 µM (inactive) in the assay with OVCAR-5; 8.63 µM (inactive) in the assay with SF-295; 31 µM (inactive) with KM12; 2.99 µM (inactive) in the assay on IGROV-1; 28 µM (inactive) in the assay with U-251. Also, the GI50 in the assay with UACC-257 was 32.6 µM (inactive); in the assay on OVCAR-4, 63.8 µM (inactive); with NCI/ADR-RES it was 22.9 µM (inactive); in the assay with Malme-3M, 0.0676 µM (active); in the assay on COLO 205, 9.75 µM (inactive); in the assay with ACHN, 37.8 µM (inactive). Moreover, the GI50 with SW-620 is 45.4 µM (inactive); in the assay on SK-MEL-2, 15.2 µM (inactive); in the assay with SF-268, 46.9 µM (inactive); in the assay with CCRF-CEM it was 9.68 µM (inactive); in the assay on CAKI-1, 22.2 µM (inactive); in the assay with DU-145 it was 13 µM (inactive).

On to `O=c1oc2c(O)c(O)cc3c(=O)oc4c(O)c(O)cc1c4c23` [ELLAGIC ACID], for which the GI50 with MOLT-4 is > 10 µM (inactive); with OVCAR-5, > 10 µM (inactive); in the assay with SF-295, > 10 µM (inactive); with KM12, > 10 µM (inactive); in the assay on IGROV-1, 45.4 µM (inactive); in the assay on U-251, 27.9 µM (inactive). Besides, the GI50 with UACC-257 is > 10 µM (inactive); in the assay on OVCAR-4, 31.6 µM (inactive); in the assay on Malme-3M, > 10 µM (inactive); with COLO 205, > 10 µM (inactive); in the assay on ACHN, 45.8 µM (inactive); in the assay with SW-620, > 10 µM (inactive). Besides, the GI50 with SK-MEL-2 is 78.2 µM (inactive); in the assay with SF-268, 56.5 µM (inactive); with CCRF-CEM, > 10 µM (inactive); in the assay on CAKI-1, < 0.01 µM (active).

As for `N#Cc1nc(-c2cccnc2)oc1N`, the GI50 in the assay with MOLT-4 is 74 µM (inactive); with OVCAR-5, > 100 µM (inactive); in the assay on KM12, > 100 µM (inactive); with IGROV-1 it was > 100 µM (inactive); with U-251, > 100 µM (inactive); with UACC-257, > 100 µM (inactive). The GI50 in the assay with OVCAR-4, in the assay with Malme-3M, with COLO 205, in the assay on ACHN, in the assay with SW-620 and with SK-MEL-2 was > 100 µM (inactive) in each case. For the same compound, the GI50 in the assay on SF-268, in the assay on CCRF-CEM, with CAKI-1 and in the assay with DU-145 was > 100 µM (inactive) each time.

Turning to `COc1ccc(/C=C2/C(C)=NN(c3cccc(Cl)c3)/C2=N/c2nc3ccccc3s2)cc1`, the GI50 with MCF7 is 28.8 µM (inactive); in the assay with MOLT-4, 24.9 µM (inactive); with OVCAR-5 it was 25.1 µM (inactive); in the assay on SF-295, 22.5 µM (inactive); in the assay with KM12, 30.4 µM (inactive); in the assay with IGROV-1, 20.7 µM (inactive). Besides, the GI50 in the assay on U-251 is 20.7 µM (inactive); in the assay on UACC-257, 22.6 µM (inactive); in the assay with OVCAR-4, 37.4 µM (inactive); in the assay on NCI/ADR-RES, 22.9 µM (inactive); with ACHN, 20.6 µM (inactive); in the assay on SW-620 it was 22.7 µM (inactive). The GI50 in the assay on SK-MEL-2 was 22.3 µM (inactive); in the assay with SF-268 it was 25.6 µM (inactive); in the assay on CCRF-CEM it was 25.3 µM (inactive); in the assay with CAKI-1 it was 28.4 µM (inactive); in the assay on DU-145, 19.6 µM (inactive).

Take `S=C(Nc1ccccc1)Nc1[nH]c(=S)sc1-c1nc2ccccc2[nH]1`: the GI50 with MOLT-4 is > 100 µM (inactive); with OVCAR-5 it was > 100 µM (inactive); with SF-295, 41.9 µM (inactive); in the assay with KM12 it was > 100 µM (inactive); with IGROV-1, 94.2 µM (inactive); in the assay on U-251, 80 µM (inactive). Besides, the GI50 in the assay on UACC-257 was > 100 µM (inactive); with OVCAR-4, 15.2 µM (inactive); in the assay with Malme-3M, 43 µM (inactive); with COLO 205, > 100 µM (inactive); in the assay with ACHN, 72.4 µM (inactive); with SW-620 it was > 100 µM (inactive). The GI50 was 38.4 µM (inactive) with SK-MEL-2, 48.9 µM (inactive) with SF-268, > 100 µM (inactive) in the assay on CCRF-CEM and 94 µM (inactive) in the assay on CAKI-1.

`Cc1ccc(S(=O)(=O)N(CC(O)COc2ccccc2)c2ccc(F)cc2F)cc1` (stereo not given): the GI50 with MOLT-4 is 22.8 µM (inactive); with OVCAR-5, 18.1 µM (inactive); in the assay with SF-295, 17.2 µM (inactive); in the assay with KM12, 20 µM (inactive); in the assay with U-251, 14.4 µM (inactive); in the assay on UACC-257 it was 17.9 µM (inactive). Also, the GI50 in the assay with OVCAR-4 is 11.6 µM (inactive); with NCI/ADR-RES it was 15.9 µM (inactive); in the assay with Malme-3M, 16 µM (inactive); in the assay on COLO 205, 15.3 µM (inactive); in the assay on ACHN it was 16.5 µM (inactive); with SW-620, 16.5 µM (inactive). In addition, the GI50 is 15.5 µM (inactive) with SK-MEL-2; 15.3 µM (inactive) with SF-268; 18.9 µM (inactive) in the assay on CCRF-CEM; 12.2 µM (inactive) in the assay with CAKI-1; 16.6 µM (inactive) with DU-145.

Consider `OCSc1nn(CO)c(=S)s1`, for which the GI50 was 15.4 µM (inactive) with MCF7; 23.4 µM (inactive) in the assay on MOLT-4; 48.1 µM (inactive) with OVCAR-5; 26.9 µM (inactive) with SF-295; 18.7 µM (inactive) in the assay on KM12; 17.7 µM (inactive) in the assay on IGROV-1. For the same compound, the GI50 with U-251 was 23.8 µM (inactive); in the assay with UACC-257, 23 µM (inactive); with OVCAR-4, 18.5 µM (inactive); in the assay on NCI/ADR-RES, 21.1 µM (inactive); in the assay on Malme-3M, 22.5 µM (inactive); with COLO 205, 28.1 µM (inactive). The GI50 in the assay with ACHN is 25.1 µM (inactive); in the assay on SW-620, 28.1 µM (inactive); in the assay with SK-MEL-2 it was 23 µM (inactive); in the assay on SF-268 it was 21.6 µM (inactive); in the assay on CCRF-CEM, 6.79 µM (inactive); in the assay with CAKI-1, 31.1 µM (inactive). In addition, the GI50 in the assay with DU-145 was 23.8 µM (inactive).

Consider `CCCCCCCCCCCCCCCCCCCCCC(=O)Nc1ccn(C2OC(CO)C(O)C2O)c(=O)n1` (stereo not given), for which the GI50 was 0.273 µM (active) with MOLT-4; > 61 µM (inactive) in the assay with OVCAR-5; > 84.3 µM (inactive) in the assay with SF-295; > 100 µM (inactive) in the assay on KM12; > 68.9 µM (inactive) in the assay on IGROV-1; > 92.9 µM (inactive) in the assay on U-251. Further, the GI50 in the assay on UACC-257 was > 100 µM (inactive); with OVCAR-4, > 100 µM (inactive); in the assay with Malme-3M it was > 42.4 µM (inactive); in the assay on COLO 205 it was > 54.2 µM (inactive); in the assay on ACHN it was 5.2 µM (inactive); in the assay with SW-620 it was > 57.4 µM (inactive). The GI50 in the assay with SK-MEL-2 was > 100 µM (inactive); in the assay on SF-268, 18.4 µM (inactive); in the assay on CCRF-CEM it was 0.191 µM (active); in the assay with CAKI-1 it was > 31.6 µM (inactive).

In the case of `NNC(=O)C(=O)N/N=C1\CCC(=O)CC1C(=O)CCC(=O)Nc1ccc(Cl)cc1` (stereo not given), the GI50 in the assay with MOLT-4 is > 100 µM (inactive); with OVCAR-5, > 100 µM (inactive); in the assay on SF-295, > 100 µM (inactive); in the assay with KM12, 64 µM (inactive); with IGROV-1, > 100 µM (inactive); in the assay with U-251, > 100 µM (inactive). For the same compound, the GI50 in the assay on UACC-257, in the assay with OVCAR-4, with Malme-3M, with COLO 205, with ACHN and with SW-620 was > 100 µM (inactive) each time. Further, the GI50 in the assay with SK-MEL-2, with SF-268, with CCRF-CEM and in the assay on CAKI-1 was > 100 µM (inactive) each time.

Turning to `O=C(Cc1nc2c3c(ccc2nc1O)C(=O)c1ccccc1C3=O)C(=O)Nc1ccccc1[N+](=O)[O-]`, the GI50 was 4.22 µM (inactive) with MOLT-4; 21.5 µM (inactive) in the assay on OVCAR-5; > 10 µM (inactive) in the assay on SF-295; 18.7 µM (inactive) in the assay on KM12; 29.6 µM (inactive) with IGROV-1; 17.7 µM (inactive) with U-251. Also, the GI50 is 17.7 µM (inactive) in the assay on UACC-257; 13.2 µM (inactive) in the assay with OVCAR-4; 19.1 µM (inactive) with Malme-3M; 15.2 µM (inactive) in the assay on COLO 205; 15.7 µM (inactive) with ACHN; 12.3 µM (inactive) in the assay on SW-620. Further, the GI50 in the assay with SK-MEL-2 was 19.1 µM (inactive); in the assay with SF-268, 14.4 µM (inactive); with CCRF-CEM it was 2.51 µM (inactive); in the assay with CAKI-1, 21.5 µM (inactive).

As for `CN(C)Cc1cc(C(=O)/C=C/c2ccc(Br)cc2)cc(CN(C)C)c1O`, the GI50 with MCF7 is 6.61 µM (inactive); in the assay with MOLT-4 it was 3.91 µM (inactive); in the assay on OVCAR-5, 19.3 µM (inactive); in the assay with SF-295, 5.58 µM (inactive); with KM12 it was 2.16 µM (inactive); with IGROV-1, 11.7 µM (inactive). Further, the GI50 with U-251 is 12.9 µM (inactive); in the assay on UACC-257, 6.53 µM (inactive); in the assay with OVCAR-4, 7.46 µM (inactive); in the assay with NCI/ADR-RES it was 16.7 µM (inactive); with Malme-3M, 16.6 µM (inactive); in the assay on COLO 205, 1.67 µM (inactive). Moreover, the GI50 in the assay on ACHN is 3.6 µM (inactive); with SW-620 it was 4.25 µM (inactive); in the assay with SF-268 it was 18.2 µM (inactive); in the assay on CCRF-CEM it was 3.24 µM (inactive); in the assay on CAKI-1, 2.28 µM (inactive); with DU-145, 12.6 µM (inactive).

The record behind these values is ChEMBL document CHEMBL1201862, “PubChem BioAssay data set” (2004).
